Data published in BindingDB's records for doi:10.1016/j.ejmech.2014.07.015 (Tianjin University, 2014).
Residues, ends and D or L forms follow the SMILES beside them.

Target: Angiotensin-converting enzyme (Homo sapiens, UniProt P12821)
Assay: Inhibition of ACE (unknown origin)

Chain of Angiotensin-converting enzyme (P12821 whole entry): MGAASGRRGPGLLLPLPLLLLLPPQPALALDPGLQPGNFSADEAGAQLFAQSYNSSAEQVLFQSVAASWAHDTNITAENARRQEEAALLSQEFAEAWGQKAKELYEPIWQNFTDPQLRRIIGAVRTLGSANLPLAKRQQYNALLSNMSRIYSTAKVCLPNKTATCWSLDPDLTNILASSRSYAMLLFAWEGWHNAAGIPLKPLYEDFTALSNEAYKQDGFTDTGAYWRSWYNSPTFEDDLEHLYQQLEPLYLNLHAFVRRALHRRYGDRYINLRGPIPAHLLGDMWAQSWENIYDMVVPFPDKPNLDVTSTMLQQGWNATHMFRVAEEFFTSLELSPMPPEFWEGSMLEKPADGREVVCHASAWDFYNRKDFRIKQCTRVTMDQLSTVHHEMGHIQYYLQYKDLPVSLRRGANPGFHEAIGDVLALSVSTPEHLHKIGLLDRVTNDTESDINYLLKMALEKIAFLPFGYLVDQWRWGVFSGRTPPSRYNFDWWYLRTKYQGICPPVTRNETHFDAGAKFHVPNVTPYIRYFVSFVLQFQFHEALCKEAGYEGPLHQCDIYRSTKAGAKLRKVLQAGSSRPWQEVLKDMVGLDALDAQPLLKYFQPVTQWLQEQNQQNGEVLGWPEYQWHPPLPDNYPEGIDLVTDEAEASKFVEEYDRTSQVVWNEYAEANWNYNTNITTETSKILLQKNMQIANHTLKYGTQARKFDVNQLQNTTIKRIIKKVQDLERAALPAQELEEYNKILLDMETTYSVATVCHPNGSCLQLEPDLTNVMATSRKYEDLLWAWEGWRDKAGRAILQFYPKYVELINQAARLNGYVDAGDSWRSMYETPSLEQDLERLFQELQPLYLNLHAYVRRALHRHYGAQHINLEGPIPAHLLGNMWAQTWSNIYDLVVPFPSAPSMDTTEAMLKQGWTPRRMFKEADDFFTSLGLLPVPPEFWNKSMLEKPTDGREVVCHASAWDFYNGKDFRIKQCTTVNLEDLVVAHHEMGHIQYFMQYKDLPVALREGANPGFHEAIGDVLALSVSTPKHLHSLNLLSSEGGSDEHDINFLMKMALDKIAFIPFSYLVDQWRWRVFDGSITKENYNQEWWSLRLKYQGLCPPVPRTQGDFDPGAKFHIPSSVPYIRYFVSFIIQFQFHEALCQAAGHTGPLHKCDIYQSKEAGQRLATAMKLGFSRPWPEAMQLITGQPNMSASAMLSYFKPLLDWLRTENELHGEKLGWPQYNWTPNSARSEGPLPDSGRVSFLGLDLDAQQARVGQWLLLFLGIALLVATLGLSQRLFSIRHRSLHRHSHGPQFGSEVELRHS

H-LHLPLP-OH was tested, and the IC50 was 3.71 µM.
For N=C(N)NCCC[C@H](N)C(=O)N[C@@H](Cc1ccc(O)cc1)C(=O)O [CHEBI:73822] (H-Arg-Tyr-OH), the IC50 was 51.2 µM.
Work on CSCC[C@H](N)C(=O)N[C@@H](CC(N)=O)C(=O)N1CCC[C@H]1C(=O)O (H-Met-Asn-Pro-OH) yielded an IC50 of 66 µM.
For CC[C@H](C)[C@H](N)C(=O)N[C@@H](CCC(=O)O)C(=O)N1CCC[C@H]1C(=O)O (H-Ile-Glu-Pro-OH), the IC50 was 1.58 µM.
C[C@H](N)C(=O)N[C@@H](Cc1c[nH]c2ccccc12)C(=O)O [(S)-2-((S)-2-Amino-propionylamino)-3-(1H-indol-3-yl)-propionic acid] (H-Ala-Trp-OH) was tested, and the IC50 was 12 µM.
In the case of C[C@H](N)C(=O)N[C@@H](Cc1ccc(O)cc1)C(=O)O [(S)-2-((S)-2-Amino-propionylamino)-3-(4-hydroxy-phenyl)-propionic acid] (H-Ala-Tyr-OH), the IC50 is reported as 19 µM.
For H-AVPYP-OH, the IC50 was 79.4 µM.
For CC(C)C[C@H](N)C(=O)N[C@@H](CCC(N)=O)C(=O)N1CCC[C@H]1C(=O)O [CHEBI:73270] (H-Leu-Gln-Pro-OH), the IC50 was 1.9 µM.
Work on NC(=O)C[C@H](N)C(=O)N[C@@H](Cc1ccccc1)C(=O)O (H-Asn-Phe-OH) yielded an IC50 of 46.7 µM.
In the case of N[C@@H](CO)C(=O)N[C@@H](Cc1ccc(O)cc1)C(=O)O [CHEBI:73652] (H-Ser-Tyr-OH), the IC50 is reported as 66 µM.
CC(C)[C@H](N)C(=O)N[C@@H](Cc1ccc(O)cc1)C(=O)O [Ang(3-4)] (H-Val-Tyr-OH) showed an IC50 of 15.8 µM.
CC(C)C[C@H](N)C(=O)N[C@@H](C)C(=O)N1CCC[C@H]1C(=O)O (H-Leu-Ala-Pro-OH) gave an IC50 of 3.46 µM.
Compound CC(C)C[C@H](N)C(=O)N[C@@H](Cc1ccc(O)cc1)C(=O)O has an IC50 of 32.3 µM.
In the case of CC(C)[C@H](N)C(=O)N[C@@H](CCCNC(=N)N)C(=O)N1CCC[C@H]1C(=O)O (H-Val-Arg-Pro-OH), the IC50 is reported as 2.18 µM.
For CC(C)C[C@H](N)C(=O)N[C@@H](CCC(=O)O)C(=O)N1CCC[C@H]1C(=O)O (H-Leu-Glu-Pro-OH), the IC50 was 1.9 µM.
H-LHLYLP-OH was tested, and the IC50 was 19 µM.
Work on H-IAYKP-OH yielded an IC50 of 2.18 µM.
C[C@H](NC(=O)[C@@H](N)Cc1ccccc1)C(=O)N1CCC[C@H]1C(=O)O (H-Phe-Ala-Pro-OH) showed an IC50 of 3.8 µM.
Work on CC(C)C[C@H](N)C(=O)N[C@@H](CC(N)=O)C(=O)N1CCC[C@H]1C(=O)O (H-Leu-Asn-Pro-OH) yielded an IC50 of 57.5 µM.
H-LHLPGP-OH showed an IC50 of 1.9 µM.
Compound CC[C@H](C)[C@H](N)C(=O)N[C@@H](Cc1c[nH]c2ccccc12)C(=O)O has an IC50 of 4.67 µM.
In the case of CSCC[C@H](N)C(=O)N[C@@H](Cc1c[nH]c2ccccc12)C(=O)O [CHEBI:74709] (H-Met-Trp-OH), the IC50 is reported as 10 µM.
Compound CC(C)C[C@H](N)C(=O)N[C@@H](CCCCN)C(=O)N1CCC[C@H]1C(=O)O (H-Leu-Lys-Pro-OH) has an IC50 of 3.98 µM.
For N[C@@H](Cc1ccccc1)C(=O)N[C@@H](Cc1ccc(O)cc1)C(=O)O [CHEBI:73637] (H-Phe-Tyr-OH), the IC50 was 25.1 µM.
In the case of H-FFVAP-OH, the IC50 is reported as 6.02 µM.
CC(C)[C@H](NC(=O)[C@H](C)N)C(=O)NCC(=O)N1CCC[C@H]1C(=O)O (H-AVGP-OH) was tested, and the IC50 was 3.09 µM.
N[C@@H](CC(=O)O)C(=O)N[C@@H](Cc1ccc(O)cc1)C(=O)O [CHEBI:73455] (H-Asp-Tyr-OH) showed an IC50 of 100 µM.
Work on NC(N)=NCCC[C@H](N)C(=O)N[C@@H](Cc1c[nH]c2ccccc12)C(=O)O (H-Arg-Trp-OH) yielded an IC50 of 15.8 µM.
With NC(N)=NCCC[C@H](N)C(=O)N1CCC[C@H]1C(=O)O (H-Arg-Pro-OH) the IC50 was 20.8 µM.
Work on N[C@@H](Cc1c[nH]cn1)C(=O)N[C@@H](Cc1ccc(O)cc1)C(=O)O [CHEBI:74059] (H-His-Tyr-OH) yielded an IC50 of 26.3 µM.
Compound H-LHLPAP-OH has an IC50 of 6.02 µM.
In the case of NCCCC[C@H](N)C(=O)N[C@@H](Cc1ccccc1)C(=O)O [CHEBI:73605], the IC50 is reported as 28.1 µM.
In the case of H-VLPYP-OH, the IC50 is reported as 36.3 µM.
NC(=O)CC[C@H](NC(=O)[C@@H](N)Cc1ccccc1)C(=O)N1CCC[C@H]1C(=O)O (H-Phe-Gln-Pro-OH) was tested, and the IC50 was 12 µM.
CC[C@H](C)[C@H](N)C(=O)N[C@@H](CCCCN)C(=O)N1CCC[C@H]1C(=O)O (H-Ile-Lys-Pro-OH) showed an IC50 of 6.91 µM.
Compound CC(C)[C@H](N)C(=O)N[C@@H](CO)C(=O)N[C@@H](CO)C(=O)N1CCC[C@H]1C(=O)O (H-VSSP-OH) has an IC50 of 10 µM.
For C[C@@H](O)[C@H](N)C(=O)N[C@@H](Cc1ccccc1)C(=O)O [CHEBI:74862] (H-Thr-Phe-OH), the IC50 was 89.1 µM.
CC[C@H](C)[C@H](N)C(=O)N[C@@H](Cc1ccc(O)cc1)C(=O)O [(S)-2-((S)-2-Amino-3-(S)-methyl-pentanoylamino)-3-(4-hydroxy-phenyl)-propionic acid] (H-Ile-Tyr-OH) showed an IC50 of 6.16 µM.
Compound H-DYGLYP-OH has an IC50 of 61.6 µM.
In the case of H-RPQIPP-OH, the IC50 is reported as 45.7 µM.
With H-SKVPP-OH the IC50 was 74.1 µM.
Compound NC(=O)C[C@H](N)C(=O)N[C@@H](Cc1ccc(O)cc1)C(=O)O [CHEBI:73427] (H-Asn-Tyr-OH) has an IC50 of 32.3 µM.
Compound CSCC[C@H](NC(=O)[C@@H](N)C(C)C)C(=O)N1CCC[C@H]1C(=O)O (H-Val-Met-Pro-OH) has an IC50 of 28.8 µM.
CC[C@H](C)[C@H](N)C(=O)N[C@@H](C)C(=O)N1CCC[C@H]1C(=O)O [Ile-Ala-Pro] (H-Ile-Ala-Pro-OH) gave an IC50 of 2.69 µM.
With H-VHLAP-OH the IC50 was 4.46 µM.
With H-VHLPP-OH the IC50 was 18.1 µM.
Compound N=C(N)NCCC[C@H](N)C(=O)N[C@@H](Cc1ccccc1)C(=O)O has an IC50 of 93.3 µM.
Work on CC(C)C[C@H](N)C(=O)N[C@@H](CO)C(=O)N1CCC[C@H]1C(=O)O (H-Leu-Ser-Pro-OH) yielded an IC50 of 1.69 µM.
With CSCC[C@H](N)C(=O)N[C@@H](Cc1ccccc1)C(=O)O [CHEBI:74708] (H-Met-Phe-OH) the IC50 was 44.6 µM.
H-LHLWLP-OH was tested, and the IC50 was 8.91 µM.
H-LAYFYP-OH gave an IC50 of 64.5 µM.
For H-LHLPYP-OH, the IC50 was 2.29 µM.
In the case of H-VLPIP-OH, the IC50 is reported as 30.9 µM.
Work on N[C@@H](Cc1ccccc1)C(=O)N[C@@H](CCC(=O)O)C(=O)N1CCC[C@H]1C(=O)O (H-Phe-Glu-Pro-OH) yielded an IC50 of 12 µM.
With CC(C)[C@H](NC(=O)[C@@H](N)Cc1ccccc1)C(=O)N[C@@H](C)C(=O)N1CCC[C@H]1C(=O)O (H-FVAP-OH) the IC50 was 10 µM.
With CC(C)[C@H](N)C(=O)N[C@@H](Cc1ccccc1)C(=O)O [(S)-2-((S)-2-Amino-3-methyl-butyrylamino)-3-phenyl-propionic acid] (H-Val-Phe-OH) the IC50 was 9.12 µM.
For CC(C)C[C@H](NC(=O)[C@@H](N)CC(=O)O)C(=O)N1CCC[C@H]1C(=O)O (H-Asp-Leu-Pro-OH), the IC50 was 4.78 µM.
For CC(C)[C@H](N)C(=O)N[C@@H](CO)C(=O)N1CCC[C@H]1C(=O)O (H-Val-Ser-Pro-OH), the IC50 was 10 µM.
For NCCCC[C@H](N)C(=O)N1CCC[C@H]1C(=O)O [CHEBI:74567] (H-Lys-Pro-OH), the IC50 was 21.8 µM.
CC(C)[C@H](N)C(=O)NCC(=O)N1CCC[C@H]1C(=O)O (H-Val-Gly-Pro-OH) showed an IC50 of 26.3 µM.
Compound CC(C)C[C@H](N)C(=O)N[C@@H](Cc1c[nH]c2ccccc12)C(=O)O [CHEBI:73590] has an IC50 of 17.3 µM.
For NCC(=O)N[C@@H](Cc1c[nH]c2ccccc12)C(=O)O [2-((S)-2-Amino-acetylamino)-3-(1H-indol-3-yl)-propionic acid] (H-Gly-Trp-OH), the IC50 was 25.1 µM.
Compound C[C@H](N)C(=O)N[C@@H](Cc1ccccc1)C(=O)O [2-(2-Amino-propionylamino)-3-phenyl-propionic acid] has an IC50 of 75.8 µM.
With CC(C)C[C@H](N)C(=O)N[C@@H](Cc1ccc(O)cc1)C(=O)N1CCC[C@H]1C(=O)O (H-Leu-Tyr-Pro-OH) the IC50 was 6.6 µM.
Compound N=C(N)NCCC[C@H](NC(=O)CN)C(=O)N1CCC[C@H]1C(=O)O (H-Gly-Arg-Pro-OH) has an IC50 of 19.9 µM.
C[C@H](NC(=O)[C@H](Cc1c[nH]c2ccccc12)NC(=O)CN)C(=O)N1CCC[C@H]1C(=O)O (H-GWAP-OH) gave an IC50 of 3.89 µM.
